Test results published in the NIST ThermoML archive (doi:10.1016/j.fluid.2014.04.027).
± gives the expanded uncertainty stated by the source.

Assay: xn = mol fraction of the nth substance listed
Settings: 100 kPa, Liquid, Alternating current cell with electrodes

CCCCCCCCCCCCOS(=O)(=O)[O-].[Na+] [sodium dodecyl sulfate] + O
electrical conductivity [S/m]
Settings	298.15 K	308.15 K	318.15 K
x1 = 6.348e-05	0.024 ± 0.00096	0.0249 ± 0.001	0.0283 ± 0.0011
x1 = 6.643e-05	0.0245 ± 0.00098	0.0255 ± 0.001	0.029 ± 0.0012
x1 = 6.967e-05	0.0252 ± 0.001	0.0264 ± 0.0011	0.0298 ± 0.0012
x1 = 7.324e-05	0.0261 ± 0.001	0.0273 ± 0.0011	0.0306 ± 0.0012
x1 = 7.72e-05	0.0269 ± 0.0011	0.0282 ± 0.0011	0.0317 ± 0.0013
x1 = 8.16e-05	0.0278 ± 0.0011	0.0292 ± 0.0012	0.0329 ± 0.0013
x1 = 8.4e-05	0.0284 ± 0.0011	0.0298 ± 0.0012	0.0334 ± 0.0013
x1 = 8.655e-05	0.0291 ± 0.0012	0.0304 ± 0.0012	0.034 ± 0.0014
x1 = 8.925e-05	0.0297 ± 0.0012	0.0311 ± 0.0012	0.0347 ± 0.0014
x1 = 9.213e-05	0.0305 ± 0.0012	0.0317 ± 0.0013	0.0355 ± 0.0014
x1 = 9.519e-05	0.0311 ± 0.0012	0.0323 ± 0.0013	0.0362 ± 0.0014
x1 = 9.847e-05	0.0317 ± 0.0013	0.0332 ± 0.0013	0.0371 ± 0.0015
x1 = 0.000102	0.0327 ± 0.0013	0.0339 ± 0.0014	0.038 ± 0.0015
x1 = 0.0001058	0.0335 ± 0.0013	0.0349 ± 0.0014	0.0389 ± 0.0016
x1 = 0.0001098	0.0345 ± 0.0014	0.0359 ± 0.0014	0.04 ± 0.0016
x1 = 0.0001142	0.0353 ± 0.0014	0.037 ± 0.0015	0.0412 ± 0.0016
x1 = 0.000119	0.0365 ± 0.0015	0.0382 ± 0.0015	0.0424 ± 0.0017
x1 = 0.0001241	0.0375 ± 0.0015	0.0394 ± 0.0016	0.0436 ± 0.0018
x1 = 0.0001298	0.0388 ± 0.0015	0.0408 ± 0.0016	0.045 ± 0.0018
x1 = 0.0001359	0.0401 ± 0.0016	0.0423 ± 0.0017	0.0465 ± 0.0019
x1 = 0.0001427	0.0414 ± 0.0017	0.0439 ± 0.0018	0.0481 ± 0.0019
x1 = 0.0001502	–	0.0455 ± 0.0018	0.0498 ± 0.002
x1 = 0.0001586	–	–	0.052 ± 0.0021
